This note sets out measurements from US10745355B2, “Anti-cancer compounds” (THE UNIVERSITY OF SYDNEY, priority 2015, dated 2020).

The structures appear in SMILES notation.

Assay [1] concerns U87. The experiment in a line: Alamar blue cell viability assay, U87 cells. Type of assay: cell-based. Conditions: Homo sapiens, U-87 MG; 72 hours of treatment; mean±SEM, three independent experiments. Here is the method:
(§1) U87 and U251 cell lines were obtained from the European Collection of Cell Cultures (ECACC) through CellBank Australia. U87-EGFRvIII cell line was obtained from their lab of origin (Nishikawa et al., 1994, Proc Natl Acad Sci USA 91: 7727-7731) and tested for EGFR amplification and mutation by immunoblotting and flow cytometry. Cells were cultured in DMEM medium (Invitrogen by Life Technologies, Carlsbad, Calif., USA) supplemented with 10% FBS (Sigma-Aldrich) at 37° C. and 5% CO2. Primary gliomaspheres (RN1, classical; WK1, mesenchymal) were derived from glioblastoma specimens (Day et al., 2013, Cancers 5: 357-371; Day et al., 2013, Cancer Cell 23: 238-248), maintained in StemPro NSC serum-free media supplemented with EGF and FGF (all Life Technologies), and grown on matrigel-coated flasks (Pollard et al., 2009, Cell Stem Cell 4: 568-580).
(§2) Cell viability was determined using Alamar blue assay after 72 hours of treatment (Table 2). EC50 values were calculated using non-linear regression on Graph Pad Prism version 5. c Log P values calculated using ChemBioDraw Software. Results are mean±SEM from three independent experiments performed in triplicates.

For assay [2], the system named is U251. Description: Alamar blue cell viability assay, U251 cells. The note with it: Homo sapiens, U-251; 72 hours of treatment; mean±SEM, three independent experiments. Format: cell-based. Here is the method:
as §1, §2
For orientation: Alamar Blue is a resazurin reagent that responds to reducing activity.

Assay [3] concerns the target CSK (Homo sapiens, UniProt P41240). The experiment in a line: Kinase profiling (ProQinase 33PanQinase Activity Assay), CSK. Type of assay: biochemical. The note with it: read-out: residual activity, CSK. Here is the method: (§3) The kinase profiling of compound 1-08 at 10 and 50 μM was performed by ProQinase GmbH (Freiburg, Germany). A radiometric protein kinase assay (^33PanQinase® Activity Assay) and the non-radiometric ADP-Glo™ Assay (Promega, Madison, Wis., USA) were used for measuring kinase activity of 387 protein kinases and 13 lipid kinases, respectively. The results are shown in Table 3 (only the top 10 kinases are listed, and the selectivity score describes the portion of kinases inhibited more than 50% in relation to all tested kinases).

In assay [4] the target is LYN (Homo sapiens, UniProt P07948). The experiment in a line: Kinase profiling (ProQinase 33PanQinase Activity Assay), LYN. Format: biochemical. The note with it: read-out: residual activity, LYN. How it is done: as §3
LYN, sequence (P07948 whole entry): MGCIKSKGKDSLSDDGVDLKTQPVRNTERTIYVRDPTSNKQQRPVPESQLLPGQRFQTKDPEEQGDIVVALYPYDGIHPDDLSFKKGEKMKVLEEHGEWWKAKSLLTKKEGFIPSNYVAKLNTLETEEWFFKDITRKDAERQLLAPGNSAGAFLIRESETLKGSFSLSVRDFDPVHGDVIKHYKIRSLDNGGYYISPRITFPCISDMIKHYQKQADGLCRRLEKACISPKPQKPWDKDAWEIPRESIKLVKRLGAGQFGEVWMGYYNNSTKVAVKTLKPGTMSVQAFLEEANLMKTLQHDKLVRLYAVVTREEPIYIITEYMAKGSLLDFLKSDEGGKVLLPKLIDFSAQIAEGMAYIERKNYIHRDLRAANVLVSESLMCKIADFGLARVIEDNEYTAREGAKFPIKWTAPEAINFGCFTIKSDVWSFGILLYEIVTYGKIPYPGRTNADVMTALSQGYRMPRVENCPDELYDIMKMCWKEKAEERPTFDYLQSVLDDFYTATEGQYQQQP
Assay [5] has as its target T1, Porcine brain tubulin (Sus scrofa, UniProt P02550+P02554).
T1 construct: purchased Cytoskeleton, Colo., USA (Tubulin Polymerisation Assay kit); host or cells: porcine brain (tissue-purified)
The experiment in a line: Fluorescence-based tubulin polymerisation assay. Format: biochemical. Conditions: 37° C., FIG. 10A. Here is the method: (§4) FIGS. 10A-10D. […] (10A) Compound 1-08 inhibits tubulin polymerisation in vitro. Data are expressed as mean from at least 3 independent experiments; each data point was performed in triplicates. (10B) U87 cells treated with compound 1-08 (24 h) were stained with Alexa488-labelled anti-β-tubulin antibody (green) or DAPI (blue). Treatment profoundly disturbed the microtubule network and caused formation of multinucleated cell (white arrows). White scale bar represents 50 μm. Multinucleated cells were manually counted and at least 200 cells were counted for each sample. Data in the bar graph (10C) are expressed as mean±SEM (n=3; * P<0.05, *** P<0.001; 1-way ANOVA followed by Newman-Keuls posttest). (10D) U87 cells were treated with compound 1-08 (48 h), tubulin and DNA were stained as in (10B). Treatment with 1-08 caused defective mitotic spindle formation. Representative images from 3 independent experiments are shown. White scale bar represents 2 μm.
(§5) The effect of compound 1-08 on tubulin polymerisation and mitotic spindle formation was also investigated. The fluorescence-based tubulin polymerisation assay was conducted in the final volume of 55 μL using the Tubulin Polymerisation Assay kit (Cytoskeleton, Colo., USA) as per the manufacturer's instructions. Porcine brain tubulin was incubated with test compounds (paclitaxel, vinblastine and compound 1-08) at 37° C. and fluorescence was measured using FLUOstar Omega microplate reader (BMG Labtech, Ortenberg, Germany; excitation at 355 nm and emission at 460 nm). […] To test whether compound 1-08 alters microtubules in vivo, U87 glioblastoma cells were treated with compound 1-08 and the effect on the microtubules was determined by immunofluorescence staining of β-tubulin. […] The consequence of microtubule depolymerisation induced by compound 13 was disrupted spindle assembly (FIG. 10D). In untreated U87 cells undergoing mitosis, microtubules are assembled into bipolar spindles (control images).

The test system of assay [6] is U87 glioblastoma cells. Description: Immunofluorescence staining of β-tubulin in treated U87 cells (microtubules, multinucleated cells, mitotic spindle). Format: cell-based. Here is the method: as §4, §5
Assay [7] deals with RN1 gliomaspheres (classical). Description: AlamarBlue cell viability assay, RN1 gliomaspheres. Format: cell-based. The note with it: 72 h of drug treatment, FIG. 11A. How it is done:
FIGS. 11A-11B. Efficacy of SC-38 (referred to as “CMPD1”), compound 1-08 (referred to as “cmpd 13”), compound 1-18 (referred to as “cmpd 7”), and compound 1-38 (referred to as “cmpd 10”) in primary gliomaspheres representing two glioblastoma subtypes. (11A) RN1, classical, and (11B) WK1, mesenchymal. Cellular efficacy (EC50) of test compounds was determined using AlamarBlue cell viability assay after 72 h of drug treatment. Data are mean±SEM from 3 independent experiments performed in triplicate.
as §1, with “568-580). […]” for “568-580).”

CSK, sequence (P41240 whole entry): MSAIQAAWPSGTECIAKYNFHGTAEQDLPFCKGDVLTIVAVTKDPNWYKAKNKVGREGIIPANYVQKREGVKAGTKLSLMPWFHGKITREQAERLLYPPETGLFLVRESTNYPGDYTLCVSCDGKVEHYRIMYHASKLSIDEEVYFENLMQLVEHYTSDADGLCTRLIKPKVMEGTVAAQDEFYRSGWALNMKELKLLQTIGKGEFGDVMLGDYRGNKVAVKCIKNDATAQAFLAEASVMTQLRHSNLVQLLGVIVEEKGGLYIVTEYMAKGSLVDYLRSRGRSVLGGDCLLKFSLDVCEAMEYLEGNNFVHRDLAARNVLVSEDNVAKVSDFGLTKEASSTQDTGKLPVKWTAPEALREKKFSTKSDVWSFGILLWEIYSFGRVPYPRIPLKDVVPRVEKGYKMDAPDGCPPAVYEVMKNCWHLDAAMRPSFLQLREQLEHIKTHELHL
T1 sequence (P02550 whole entry): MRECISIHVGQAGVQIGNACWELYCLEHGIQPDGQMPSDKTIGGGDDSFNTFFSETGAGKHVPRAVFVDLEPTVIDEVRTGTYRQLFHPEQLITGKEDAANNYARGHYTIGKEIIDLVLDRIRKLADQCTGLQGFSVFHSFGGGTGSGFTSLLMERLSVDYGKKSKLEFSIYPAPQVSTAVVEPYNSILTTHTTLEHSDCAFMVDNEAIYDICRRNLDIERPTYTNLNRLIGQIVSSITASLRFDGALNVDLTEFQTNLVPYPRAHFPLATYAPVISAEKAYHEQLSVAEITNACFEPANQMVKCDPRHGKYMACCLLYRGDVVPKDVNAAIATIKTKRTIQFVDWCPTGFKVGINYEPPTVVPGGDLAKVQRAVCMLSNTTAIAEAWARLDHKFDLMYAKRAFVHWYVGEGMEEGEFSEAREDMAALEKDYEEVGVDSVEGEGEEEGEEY
T1 sequence (P02554 whole entry): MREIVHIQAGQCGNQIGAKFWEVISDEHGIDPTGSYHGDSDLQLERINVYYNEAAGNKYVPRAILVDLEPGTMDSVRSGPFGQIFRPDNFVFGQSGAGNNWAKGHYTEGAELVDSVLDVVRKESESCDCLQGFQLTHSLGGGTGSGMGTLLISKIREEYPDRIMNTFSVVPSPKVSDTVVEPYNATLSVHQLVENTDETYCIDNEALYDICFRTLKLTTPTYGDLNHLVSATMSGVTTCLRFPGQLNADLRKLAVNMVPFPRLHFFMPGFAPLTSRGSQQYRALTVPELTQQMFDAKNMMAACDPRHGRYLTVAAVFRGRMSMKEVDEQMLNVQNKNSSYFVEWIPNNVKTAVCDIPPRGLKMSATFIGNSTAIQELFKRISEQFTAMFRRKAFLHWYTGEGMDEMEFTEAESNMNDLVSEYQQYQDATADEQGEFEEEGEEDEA

For orientation: EC50 means the concentration needed to bring the measured effect to its halfway point. Low values mean a more potent agent, high ones a less potent agent. On to `O=C(CCCc1ccc(-c2cnc3ccccc3c2)cc1)Nc1ccc(O)cc1` [Compound 1-08, N-(4-hydroxyphenyl)-4-(4-(quinolin-3-yl)phenyl)butanamide], for which the half-maximal effective concentration (EC50) in assay [1] was found to be 650 ± 300 nM; in assay [2] it was 980 ± 200 nM; in assay [7] it was 540 nM. The remaining activity at 10 µM in assay [3] (10 μM compound) is 89%; in assay [4] (10 μM compound), 87%. Further, the remaining activity at 50 µM in assay [3] (50 μM compound) and in assay [4] (50 μM compound) was 21% each time. In assay [5], the “effect on tubulin polymerisation compared to control” value is “inhibited tubulin polymerisation in a dose-dependent manner”. For the same molecule, in assay [6] (1 and 5 μM, FIG. 10B), the effect on microtubules entry was “disassembly of microtubules”. For the same molecule, the “number of multinucleated cells” value in assay [6] (1 and 5 μM, FIGS. 10B and 10C) is “dose-dependent increase in the number of multinucleated cells”. In assay [6] (48 h, FIG. 10D), the mitotic spindle formation entry was “defective spindle formation and chromosome misalignment”.
